Measurements published in patent US20240041842A1, “PHARMACEUTICAL COMPOSITION FOR INHIBITING CANCER METASTASIS” (INDUSTRY-ACADEMIC COOPERATION FOUNDATION, YONSEI UNIVERSITY, priority 2021, published 2024).

Tests used:
HBEC-KL cell line = assay: Matrigel invasion assay, HBEC-KL cell line; format: cell-based, human; conditions: HBEC-KL; 50 uM BMS303141 24 hours, 1 um NDI-091143 24 hours, 20 uM SB-204990 2 hours
Description: For the 2D invasion assay, the inserts were pre-coated with 300 μg/ml Matrigel (Coming, 354234). After staining with […] dye (Bio-Rad, 1450013), 1×10^5 live cells per 8-um-pore cell-culture insert (Costar. 3422) were seeded in 0.5% ACL medium. 10% ACL medium was added to the outside of the insert. In the case of lung cancer and pancreatic cancer cell lines, after inoculation in 1% RPMI medium, 20% RPMI medium was added to the outside of the insert. Plates were incubated for 24 hours at 37° C. After incubation, the insert was fixed with 3.7% PFA, washed, stained with 0.4% crystal violet, and the upper membrane was washed and dried.

Snail [1] = assay: Western blot of Snail protein; format: cell-based, human; conditions: for Snail: BMS303141 24 hours, NDI-091143 24 hours, SB-204990 2 hours; for Snail expression: H2O2 or NAC for 6 hours; for Snail expression levels: BAPTA or calmidazolium for 1 hour
Description: (§1) Cells were harvested, washed with PBS, and lysed on ice with RIPA buffer containing protease and phophatase inhibitor cocktail (GenDEPOT). After 15 minutes of incubation, the cell lysates were centrifuged at 15,000 rpm at 4° C. for 10 minutes. Protein concentration was measured by Bradford assay (Bio-rad, 500-0006). Equal amounts of total protein were placed on an SDS gel electrophoresis and transferred to a PVDF membrane (Bio-rad). The membrane was blocked with 5% skim milk for 1 hour at room temperature and incubated overnight at 4° C. with primary antibody in a buffer containing 0.1% Tween-20. Subsequently, the membrane was washed three times with Tween-PBS buffer and incubated for 1 hour at room temperature using a secondary antibody diluted in blocking buffer containing 0.1% Tween-20. Subsequently, the membrane was washed three times for 10 minutes each using Tween-TBS. Densitometry of Western blots was measured using ImageJ software.
[…] For autophagy activation, cells were'treated with 2 μM rapamycin (Selleckchem, S1039) for 5 hours. Modulation of intracellular ROS was performed with N-acetyl-cysteine (10 mM) (Sigma, A7250), hydrogen peroxide solution (100 μM to 200 μM) (Sigma, 216763), or CDDO-ME NRF2 activator (50 nM, 100 nM) (Sellckchem, S8078) for 4 to 24 hours. Intercellular calcium signal control was performed for 1 hour using BAPTA-AM (20 μM) (Sigma, A1076) or Calmidazolium Chloride (2.5 μM) (Sigma, C3930). […] For TFEB protein phosphorylation, tacrolimus (1 μM) (Selleckchem, S5003) was treated for 1 hour. […] During siRNA treatment, each siRNA was treated to a concentration of 40 to 50 nM and treated together with Lipofectamine RNAiMax (Thermo Fisher Scientific, 13778150) for transformation, and were used for experiments 48 to 72 hours later. For cDNA treatment, each cDNA was treated to a concentration of 1 to 2 μg in a 6-well plate and treated with Lipofectamine 2000 (Thermo Fisher Scientific, 11668019) for transformation, and were used for experiments 24 hours later.

phospho-AMPK T172 = assay: Western blot of phospho-AMPK T172; format: cell-based, human; conditions: HBEC-KL cell line; for AMPK phosphorylation at T172: H2O2 or NAC for 6 hours; for AMPK phosphorylation: BAPTA or calmidazolium for 1 hour
Description: as §1
For inhibition of autophagy, cells were treated with 50 μM chloroquine (Sigma, C6628) for 12 to 24 hours. For autophagy activation, cells were'treated with 2 μM rapamycin (Selleckchem, S1039) for 5 hours. Modulation of intracellular ROS was performed with N-acetyl-cysteine (10 mM) (Sigma, A7250), hydrogen peroxide solution (100 μM to 200 μM) (Sigma, 216763), or CDDO-ME NRF2 activator (50 nM, 100 nM) (Sellckchem, S8078) for 4 to 24 hours. Intercellular calcium signal control was performed for 1 hour using BAPTA-AM (20 μM) (Sigma, A1076) or Calmidazolium Chloride (2.5 μM) (Sigma, C3930). C646 (25 μM) (Sigma, SML0002), curcumin (10 μM) (Selleckchem, S1848) CBP/p300 inhibitor or vorinostat ([…]) (Selleckchem, S1047) HDAC inhibitor was treated for 24 hours to modulate snail protein acetylation. and CHIR99021 GSK3b inhibitor (3 μM) (Sigma, SML1046) was treated for 24 hours to control Snail protein phosphorylation. For TFEB protein phosphorylation, tacrolimus (1 μM) (Selleckchem, S5003) was treated for 1 hour. […] During siRNA treatment, each siRNA was treated to a concentration of 40 to 50 nM and treated together with Lipofectamine RNAiMax (Thermo Fisher Scientific, 13778150) for transformation, and were used for experiments 48 to 72 hours later. For cDNA treatment, each cDNA was treated to a concentration of 1 to 2 μg in a 6-well plate and treated with Lipofectamine 2000 (Thermo Fisher Scientific, 11668019) for transformation, and were used for experiments 24 hours later.

A549-luc cells = assay: A549-luc tail vein injection metastasis model; format: in vivo; conditions: nude mice; 100 mg/kg, qd p.o 20 consecutive days
Description: FIG. 13E illustrates role of STO-609 on cancer metastasis in an A549-luc tail vein injection model. After intravenous injection of A549-luc cells into nude mice, vehicle or STO-609 (25 mg/kg and 100 mg/kg qd) was injected for 28 days starting one day after the injection. A picture taken of a bioluminescent image when 4 weeks have elapsed after injection is shown (above). Analysis results of the total metastasis burden by photonic flux are shown (below). FIG. 13H illustrates the role of BMS303141 on cancer metastasis in an A549-luc tail vein injection model. A549-luc cells were intravenously injected into nude mice, and then vehicle or BMS303141 (100 mg/kg q.d.) was injected for 20 days starting one day after the injection. A bioluminescence image when 3 weeks have elapsed after injection is shown. 7- to 9-week-old BALB/c-nu Sic mice were obtained from SLC, Inc. (Shizuoka, Japan) and used, A549-luc cells (#JCRB1414) or SNAI1 shRNA-mediated knockdown A549-luc cells were injected at 3-4.5×10^6 cells through the tail vein of mice. After 3 to 4 weeks, metastasis was monitored by bioluminescence imaging analysis. More specifically, after injecting D-luciferin (75 mg/kg) (PerkinElmer, 122799) into the abdominal cavity of the mouse, images were obtained using an IVIS imaging system (IVIS 200, PerkinElmer, Waltham, MA, USA) in the supine position. Lung tissue was obtained for histopathological analysis. Images were analyzed using commercially available software (ImageScope; Aperio Technologies). In the STO-609 efficacy test, STO-609 (25 mg, 100 mg/kg/day) was orally administered to mice on the day of injection. In the BMS303141 efficacy test, BMS303141 (100 mg/kg/day) was orally administered to mice on the day of injection.

Snail [2] = assay: Immunoprecipitation-immunoblot of phosphorylated/acetylated or K48 polyubiquitinated Snail in A549 cells; format: cell-based, human; conditions: 25 uM C646 or 3 uM SAHA
Description: FIG. 9K illustrates the immunoprecipitation-immunoblot result of phosphorylated/acetylated or K48 polyubiquitinated Snail assay after transfection of wild-type Snail (pFLAG-Snail WT) or acetylation-defective Snail mutant (pFLAG-SnailK146R) into A549 cells and/or treatment with 25 uM C646.
FIG. 9L illustrates the immunoprecipitation-immunoblot results of the polyubiquitinated Snail assay after transfection of HA-ubiquitin and wild-type Snail (pFLAG-Snail WT) or acetylation-defective Snail mutant (pFLAG-SnailK146R) into A549 cells and/or treatment with 25 uM C646 for 2 hours (left) and/or treatment of 3 uM SAHA for 5 hours (right).
(§2) For immunoprecipitation, equal amounts of lysate and Co-IP buffer (40 mM HEPES, pH 7.4, 120 mM NaCl, 2 mM EDTA, 0.3% CHAPS (Sigma, 10810118001), 10 mM pyrophosphate (Sigma, 221368), 10 mM glycerophosphate (Sigma, G9422), 50 mM NaF, phosphatase and protease inhibitor mixture) were mixed. Cell lysates (1 μg protein) were incubated overnight at 4° C. on anti-FLAG® M2 Affinity Gel (Sigma, A2220) or anti-acetyl-lysine antibody coated agarose (ImmuneChem Pharmaceuticals, ICP0388). The immunoprecipitate was then washed three times in IP buffer, and the immunoprecipitated complex was dissolved and separated by boiling in IP buffer for 5 minutes.

LC3 = assay: Autophagic flux (LC3 Western blot, mRFP-GFP-LC3 lysosomal delivery assay); format: cell-based, human; conditions: HBEC-KL cell line; NAC or 50 uM STO-609, 24 hours
Description: as §1, with “Representative GFP-LC3, RFP-LC3 and overlapping images are shown. In addition, red puncta (mRFP+/GFP−) and yellow puncta (mRFP+/GFP+) per cell were quantified and graphed (n=15 cells/treatment). Cells” for “Cells”

TFEB (CLEAR network) = assay: CLEAR motif-driven luciferase reporter assay; format: cell-based, human; conditions: HBEC-KL; 1 uM FK506, 1 hour
Description: To compare the TFEB reporter activity with other cell lines (HBEC30KT, HBEC-K, and HBEC-KL), the pGL4.70 5× CLEAR Rluc and pSt4.14 Fluc vectors were transiently co-transfected and normalized luciferase activity was measured in Dual-Measured by Luciferase® Reporter Assay System (Promega, E1910),

TFEB = assay: Western blot / immunoprecipitation-immunoblot of TFEB (acetylated, phosphorylated, total); format: cell-based, human; conditions: HBEC-KL; 1 uM FK506, 1 hour
Description: FIG. 11J illustrates a diagram of immunoblot results of the […] a control (left), and the immunoprecipitation-immunoblot result of TFEB acetylated HBEC-KL cells under the same conditions (right) is also shown,
as §1, §2

[3] = HBEC-KL cell line, 20 nM bortezomib

With `O=C(O)C[C@@]1(O)C[C@@H](CCCCCCc2ccc(Cl)cc2Cl)OC1=O` [SB-204990] the Matrigel invasion (HBEC-KL cell line) was “reduced” and the Snail (Snail [1]; HBEC-KL) was “reduced”.

With `COC(=O)[C@]12CCC(C)(C)C[C@H]1[C@H]1C(=O)C=C3[C@@]4(C)C=C(C#N)C(=O)C(C)(C)[C@@H]4CC[C@@]3(C)[C@]1(C)CC2` [CDDO-ME] the “level of phospho-AMPK T172” value (phospho-AMPK T172; CDDO-ME for 24 hours) was “reduced”.

`CC(C)C[C@H](NC(=O)[C@H](Cc1ccccc1)NC(=O)c1cnccn1)B(O)O` [bortezomib] was tested, and the “reduction of Snail by STO-609, with bortezomib also treated” value (Snail [1]; [3]) was “restored”, the “reduction of Snail by chloroquine (CQ), with bortezomib also treated” value (Snail [1]; [3]) was “restored” and the “Snail reduction caused by the ACLY inhibitor, with Bortezomib” value (Snail [1]; HBEC-KL, 20 nM bortezomib for 3 hours) was “restored”.

In the case of `COC(=O)c1cc(Cl)c(O)c(S(=O)(=O)Nc2cc(-c3ccccc3)c(F)cc2F)c1` [NDI-091143], the Matrigel invasion (HBEC-KL cell line) is reported as “reduced” and the Snail (Snail [1]; HBEC-KL) is reported as “reduced”.

For `COc1ccc(-c2ccccc2)cc1NS(=O)(=O)c1cc(Cl)cc(Cl)c1O` [BMS303141], the Matrigel invasion (HBEC-KL cell line) was “reduced”, the Snail (Snail [1]; HBEC-KL) was “reduced” and the “total degree of metastasis” value (A549-luc cells) was “reduced”.

For `OO` [H2O2, hydrogen peroxide], the Snail expression (Snail [1]; HBEC-KL cell line) was “increased” and the “AMPK phosphorylation at T172” value (phospho-AMPK T172) was “increased”.

In the case of `CC1=NN(c2ccc(C(=O)O)cc2)C(=O)/C1=C\c1ccc(-c2cc(C)c(C)cc2[N+](=O)[O-])o1` [C646], the “K48 polyubiquitination of wild-type Snail” value (Snail [2]; pFLAG-Snail WT) is reported as “increased”, the “phosphorylation of wild-type Snail” value (Snail [2]; pFLAG-Snail WT) is reported as “increased” and the “phosphorylation and acetylation of K146R Snail” value (Snail [2]; pFLAG-SnailK146R) is reported as “did not affect”.

With `CC(=O)N[C@@H](CS)C(=O)O` [NAC, N-acetyl-cysteine] the Snail expression (Snail [1]; HBEC-KL cell line) was “decreased”, the “AMPK phosphorylation at T172” value (phospho-AMPK T172) was “decreased” and the autophagic flux (LC3) was “decreased”.

With `C=CC[C@@H]1/C=C(\C)C[C@H](C)C[C@H](OC)[C@H]2O[C@@](O)(C(=O)C(=O)N3CCCC[C@H]3C(=O)O[C@H](/C(C)=C/[C@@H]3CC[C@@H](O)[C@H](OC)C3)[C@H](C)[C@@H](O)CC1=O)[C@H](C)C[C@@H]2OC` [FK506, tacrolimus] the CLEAR activity (TFEB (CLEAR network)) was “decreased” and the phospho-TFEB (TFEB) was “increasing”.

In the case of `Clc1ccc(C(c2ccc(Cl)cc2)n2cc[n+](CC(OCc3ccc(Cl)cc3Cl)c3ccc(Cl)cc3Cl)c2)cc1` (stereo not shown) [calmidazolium], the Snail expression levels (Snail [1]; HBEC-KL cell line) is reported as “reduced” and the AMPK phosphorylation (phospho-AMPK T172) is reported as “reduced”.

`O=C(O)CN(CC(=O)O)c1ccccc1OCCOc1ccccc1N(CC(=O)O)CC(=O)O` [BAPTA] was tested, and the Snail expression levels (Snail [1]; HBEC-KL cell line) was “reduced” and the AMPK phosphorylation (phospho-AMPK T172) was “reduced”.
